Measured values published in patent US20150105386A1, “4-(4-PYRIDINYL)-BENZAMIDES AND THEIR USE AS ROCK ACTIVITY MODULATORS” (AbbVie Deutschland GmbH & Co KG, priority 2007, published 2015).

Target: T1, hROCK-2 (Homo sapiens, UniProt O75116)
T1 construct: purchased Upstate
Assay: ROCK-2 Assay (33P-ATP FlashPlate kinase assay, biotinylated S6 peptide)
Format: biochemical
Conditions: hROCK-2 0.8 nM, 5 μM ATP, 1.5 μM biotinylated S6 peptide, room temperature, 60 min
Procedure: The reaction is stopped by addition of 150 μl of 0.1 M EDTA in Dulbecco's PBS. 170 μl from each well are loaded onto a FlashPlate (PerkinElmer) and incubated at room temperature for 30 min.

T1 sequence (O75116 whole entry): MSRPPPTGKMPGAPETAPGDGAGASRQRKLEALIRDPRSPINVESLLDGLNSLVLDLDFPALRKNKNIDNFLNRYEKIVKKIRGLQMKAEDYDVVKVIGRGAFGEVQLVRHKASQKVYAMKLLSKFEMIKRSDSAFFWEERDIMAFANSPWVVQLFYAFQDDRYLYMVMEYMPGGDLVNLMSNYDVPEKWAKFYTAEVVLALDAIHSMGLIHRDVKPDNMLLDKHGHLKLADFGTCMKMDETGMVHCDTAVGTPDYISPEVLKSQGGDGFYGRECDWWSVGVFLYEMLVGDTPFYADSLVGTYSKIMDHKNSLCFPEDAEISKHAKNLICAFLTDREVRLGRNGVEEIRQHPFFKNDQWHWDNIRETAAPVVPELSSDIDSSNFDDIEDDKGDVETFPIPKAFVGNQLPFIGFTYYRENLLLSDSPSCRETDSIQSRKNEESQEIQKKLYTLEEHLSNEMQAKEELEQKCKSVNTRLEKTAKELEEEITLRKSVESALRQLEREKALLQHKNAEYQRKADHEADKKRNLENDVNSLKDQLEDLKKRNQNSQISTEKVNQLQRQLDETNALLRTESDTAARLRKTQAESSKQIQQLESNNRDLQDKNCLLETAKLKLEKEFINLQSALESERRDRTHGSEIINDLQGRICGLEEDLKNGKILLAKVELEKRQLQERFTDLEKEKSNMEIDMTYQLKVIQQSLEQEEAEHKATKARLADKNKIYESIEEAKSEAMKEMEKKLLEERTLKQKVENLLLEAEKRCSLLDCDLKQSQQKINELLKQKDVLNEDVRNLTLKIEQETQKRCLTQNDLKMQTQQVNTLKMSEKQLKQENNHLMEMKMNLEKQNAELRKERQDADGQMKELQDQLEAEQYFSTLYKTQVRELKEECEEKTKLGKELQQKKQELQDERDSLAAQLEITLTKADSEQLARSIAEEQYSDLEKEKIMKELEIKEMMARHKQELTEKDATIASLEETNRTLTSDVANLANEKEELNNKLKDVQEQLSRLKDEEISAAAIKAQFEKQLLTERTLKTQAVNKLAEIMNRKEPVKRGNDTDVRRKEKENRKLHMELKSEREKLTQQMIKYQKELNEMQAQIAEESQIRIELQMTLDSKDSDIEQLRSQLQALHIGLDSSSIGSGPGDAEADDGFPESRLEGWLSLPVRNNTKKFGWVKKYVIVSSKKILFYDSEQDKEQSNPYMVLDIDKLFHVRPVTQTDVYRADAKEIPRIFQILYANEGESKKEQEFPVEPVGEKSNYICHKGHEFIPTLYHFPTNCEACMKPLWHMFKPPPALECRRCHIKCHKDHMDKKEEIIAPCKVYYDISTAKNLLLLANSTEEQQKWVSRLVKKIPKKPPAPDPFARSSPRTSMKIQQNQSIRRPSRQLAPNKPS

Row | Structure (SMILES) | Ki
1 | Cc1ccc(C(CN)NC(=O)c2ccc(-c3ccncc3)cc2)cc1 (stereo not drawn) [Example 46, N-[2-amino-1-(4-methylphenyl)ethyl]-4-pyridin-4-ylbenzamide] | < 50 nM
2 | C[C@@H](NC(=O)c1ccc(-c2ccncc2)cc1)c1cccc2ccccc12 [Example 47, N-[(1R)-1-(1-naphthyl)ethyl]-4-pyridin-4-ylbenzamide] | < 50 nM
3 | O=C(NC(Cc1ccccc1)c1ccccc1)c1ccc(-c2ccncc2)cc1 (stereo not drawn) [Example 48, N-(1,2-diphenylethyl)-4-pyridin-4-ylbenzamide] | 50 to 500 nM
4 | O=C(NC(c1ccccc1)c1ccc(Cl)cc1)c1ccc(-c2ccncc2)cc1 (stereo not drawn) [Example 49, N-[(4-chlorophenyl)(phenyl)methyl]-4-pyridin-4-ylbenzamide] | 50 to 500 nM
5 | CC(NC(=O)c1ccc(-c2ccncc2)cc1)c1ccco1 (stereo not drawn) [Example 53] | 50 to 500 nM
6 | Cc1ccc(C(C)NC(=O)c2ccc(-c3ccncc3)cc2)o1 (stereo not drawn) [Example 71] | 50 to 500 nM
7 | CC(NC(=O)c1ccc(-c2ccncc2)cc1)c1cccs1 (stereo not drawn) [Example 72, 4-pyridin-4-yl-N—O-(2-thienyl)ethypenzamide] | < 50 nM
8 | CCC(NC(=O)c1ccc(-c2ccncc2)cc1)c1ccccc1 (stereo not drawn) [Example 75, N-(1-phenylpropyl)-4-pyridin-4-ylbenzamide] | < 50 nM
9 | CC(NC(=O)c1ccc(-c2ccncc2)cc1)c1ccccn1 (stereo not drawn) [Example 76, 4-pyridin-4-yl-N-(1-pyridin-2-ylethyl)benzamide] | 50 to 500 nM
10 | CC(NC(=O)c1ccc(-c2ccncc2)cc1)c1cccnc1 (stereo not drawn) [Example 79, 4-pyridin-4-yl-N-(1-pyridin-3-ylethyl)benzamide] | 50 to 500 nM
11 | C[C@@H](NC(=O)c1ccc(-c2ccncc2)cc1)c1ccccn1 [Example 80, 4-pyridin-4-yl-N-[(1R)-1-pyridin-2-ylethyl]benzamide] | 50 to 500 nM
12 | Cc1ccc([C@@H](C)NC(=O)c2ccc(-c3ccncc3)cc2)cc1 [Example 82, N-[(1R)-1-(4-methylphenyl)ethyl]-4-pyridin-4-ylbenzamide] | 50 to 500 nM
13 | C[C@@H](NC(=O)c1ccc(-c2ccncc2)cc1)c1ccc(F)cc1 [Example 85, N-[(1R)-1-(4-fluorophenyl)ethyl]-4-pyridin-4-ylbenzamide] | < 50 nM
14 | C[C@@H](NC(=O)c1ccc(-c2ccncc2)cc1)c1ccccc1C(F)(F)F [Example 86, 4-pyridin-4-yl-N-{(1R)-1-[2-(trifluoromethyl)phenyl]ethyl}benzamide] | 50 to 500 nM
15 | C[C@@H](NC(=O)c1ccc(-c2ccncc2)cc1)c1cccc(C(F)(F)F)c1 [Example 87, 4-pyridin-4-yl-N-{(1R)-1-[3-(trifluoromethyl)phenyl]ethyl}benzamide] | < 50 nM
16 | C[C@@H](NC(=O)c1ccc(-c2ccncc2)cc1)c1ccccc1F [Example 88, N-[(1R)-1-(2-fluorophenyl)ethyl]-4-pyridin-4-ylbenzamide] | < 50 nM
17 | C[C@@H](NC(=O)c1ccc(-c2ccncc2)cc1)c1cc(C(F)(F)F)cc(C(F)(F)F)c1 [Example 89, N-{(1R)-1-[3,5-bis(trifluoromethyl)phenyl]ethyl}-4-pyridin-4-ylbenzamide] | 50 to 500 nM
18 | C[C@@H](NC(=O)c1ccc(-c2ccncc2)cc1)c1ccc(Cl)cc1 [Example 90, N-[(1R)-1-(4-chlorophenyl)ethyl]-4-pyridin-4-ylbenzamide] | < 50 nM
19 | C[C@@H](NC(=O)c1ccc(-c2ccncc2)cc1)c1ccc2ccccc2c1 [Example 91, N-[(1R)-1-(2-naphthyl)ethyl]-4-pyridin-4-ylbenzamide] | < 50 nM
20 | COc1cc(-c2ccncc2)ccc1C(=O)N[C@H](CCO)c1ccccc1 [Example 94, N—((R)-3-hydroxy-1-phenyl-propyl)-2-methoxy-4-pyridin-4-yl-benzamide] | < 50 nM
21 | COc1cccc([C@@H](C)NC(=O)c2ccc(-c3ccncc3)cc2C)c1 [Example 96, N—[(R)-1-(3-methoxy-phenyl)-ethyl]-2-methyl-4-pyridin-4-yl-benzamide] | < 50 nM
22 | COc1cccc([C@@H](C)NC(=O)c2ccc(-c3ccncc3)c(OC)c2)c1 [Example 97, 3-methoxy-N—[(R)-1-(3-methoxy-phenyl)-ethyl]-4-pyridin-4-yl-benzamide] | < 50 nM
23 | COc1cccc([C@@H](C)NC(=O)c2ccc(-c3ccncc3C)cc2)c1 [Example 101, N—[(R)-1-(3-Methoxy-phenyl)-ethyl]-4-(3-methyl-pyridin-4-yl)-benzamide] | < 50 nM
24 | COc1cccc([C@H](C)NC(=O)c2ccc(-c3ccncc3)c(C)c2)c1 [Example 102, N—[(S)-1-(3-methoxy-phenyl)-ethyl]-3-methyl-4-pyridin-4-yl-benzamide] | < 50 nM

Row | Structure (SMILES) | Ki
25 | COc1cccc([C@@H](C)NC(=O)c2ccc(-c3ccncc3)cc2OC)c1 [Example 103, 2-methoxy-N—[(R)-1-(3-methoxy-phenyl)-ethyl]-4-pyridin-4-yl-benzamide] | < 50 nM
26 | COc1cc(-c2ccncc2)ccc1C(=O)N[C@H](C)c1cccc2ccccc12 [Example 106, 2-methoxy-N—((R)-1-naphthalen-1-yl-ethyl)-4-pyridin-4-yl-benzamide] | < 50 nM
27 | COc1cc(-c2ccncc2)ccc1C(=O)N[C@H](C)c1ccc2ccccc2c1 [Example 107, 2-methoxy-N—((R)-1-naphthalen-2-yl-ethyl)-4-pyridin-4-yl-benzamide] | 50 to 500 nM
28 | COc1cc(-c2ccncc2)ccc1C(=O)N[C@H](C)c1ccccc1 [Example 112, 2-methoxy-N—((R)-1-phenyl-ethyl)-4-pyridin-4-yl-benzamide] | < 50 nM
29 | COc1cc(-c2ccncc2)ccc1C(=O)N[C@@H](C)c1ccccc1 [Example 114, 2-methoxy-N—((S)-1-phenyl-ethyl)-4-pyridin-4-yl-benzamide] | 50 to 500 nM
30 | COc1cccc([C@H](C)NC(=O)c2ccc(-c3ccncc3)cc2OC)c1 [Example 130, 2-methoxy-N—[(S)-1-(3-methoxy-phenyl)-ethyl]-4-pyridin-4-yl-benzamide] | 50 to 500 nM
31 | COc1cc(-c2ccncc2)ccc1C(=O)N[C@H](C)c1cccc(C(F)(F)F)c1 [Example 132, 2-methoxy-4-pyridin-4-yl-N—[(R)-1-(3-trifluoromethyl-phenyl)-ethyl]-benzamide] | < 50 nM
32 | COc1cc(-c2ccncc2)ccc1C(=O)NC(CO)c1cc(Cl)cc(Cl)c1 (stereo not drawn) [Example 135, N-[1-(3,5-dichloro-phenyl)-2-hydroxy-ethyl]-2-methoxy-4-pyridin-4-ylbenzamide] | < 50 nM
33 | COc1cc(-c2ccncc2)ccc1C(=O)NC(CO)c1cccc2ccccc12 (stereo not drawn) [Example 140, N-(2-hydroxy-1-naphthalen-1-yl-ethyl)-2-methoxy-4-pyridin-4-ylbenzamide] | < 50 nM
34 | COc1cccc(C(CN2CCCC2)NC(=O)c2ccc(-c3ccncc3)cc2)c1 (stereo not drawn) [Example 149, N-[1-(3-methoxy-phenyl)-2-pyrrolidin-1-yl-ethyl]-4-pyridin-4-yl-benzamide] | < 50 nM
35 | CC(NC(=O)c1ccc(-c2ccncc2)cc1)c1cccc(OCc2ccccc2)c1 (stereo not drawn) [Example 151, N-[1-(3-benzyloxy-phenyl)-ethyl]-4-pyridin-4-yl-benzamide] | < 50 nM
36 | CC(C)Oc1cccc(C(C)NC(=O)c2ccc(-c3ccncc3)cc2)c1 (stereo not drawn) [Example 152, N-[1-(3-isopropoxy-phenyl)-ethyl]-4-pyridin-4-yl-benzamide] | < 50 nM
37 | CC(C)COc1cccc(C(C)NC(=O)c2ccc(-c3ccncc3)cc2)c1 (stereo not drawn) [Example 153, N-[1-(3-isobutoxy-phenyl)-ethyl]-4-pyridin-4-yl-benzamide] | < 50 nM
38 | COc1cccc([C@@H](C)NC(=O)c2ccc(-c3ccncc3)c(Cl)c2)c1 [Example 156, 3-Chloro-N—[(R)-1-(3-methoxy-phenyl)-ethyl]-4-pyridin-4-yl-benzamide] | < 50 nM
39 | Cc1cnccc1-c1ccc(C(=O)N[C@H](C)c2ccccc2)cc1 [Example 157, 4-(3-methyl-pyridin-4-yl)-N—((R)-1-phenyl-ethyl)-benzamide] | < 50 nM
40 | Cc1cnccc1-c1ccc(C(=O)N[C@H](C)c2cccc3ccccc23)cc1 [Example 159, 4-(3-methyl-pyridin-4-yl)-N—((R)-1-naphthalen-1-yl-ethyl)-benzamide] | < 50 nM
41 | Cc1cnccc1-c1ccc(C(=O)NC2CCCc3ccccc32)cc1 (stereo not drawn) [Example 160, 4-(3-methyl-pyridin-4-yl)-N-(1,2,3,4-tetrahydro-naphthalen-1-yl)-benzamide] | 50 to 500 nM
42 | Cc1cnccc1-c1ccc(C(=O)N[C@H](C)c2ccc(Br)cc2)cc1 [Example 166, N—[(R)-1-(4-bromo-phenyl)-ethyl]-4-(3-methyl-pyridin-4-yl)-benzamide] | 50 to 500 nM
43 | Cc1cnccc1-c1ccc(C(=O)N[C@H](C)c2ccc(Cl)cc2)cc1 [Example 168, N—[(R)-1-(4-chloro-phenyl)-ethyl]-4-(3-methyl-pyridin-4-yl)-benzamide] | 50 to 500 nM
44 | Cc1cnccc1-c1ccc(C(=O)N[C@H](C)c2ccc3ccccc3c2)cc1 [Example 170, 4-(3-methyl-pyridin-4-yl)-N—((R)-1-naphthalen-2-yl-ethyl)-benzamide] | 50 to 500 nM
45 | COc1ccccc1C(CO)NC(=O)c1ccc(-c2ccncc2C)cc1 (stereo not drawn) [Example 171, N-[2-hydroxy-1-(2-methoxy-phenyl)-ethyl]-4-(3-methyl-pyridin-4-yl)-benzamide] | 50 to 500 nM
46 | Cc1cnccc1-c1ccc(C(=O)NC(CO)c2cccc3ccccc23)cc1 (stereo not drawn) [Example 172, N-(2-hydroxy-1-naphthalen-1-yl-ethyl)-4-(3-methyl-pyridin-4-yl)-benzamide] | < 50 nM
47 | COc1ccccc1[C@@H](C)NC(=O)c1ccc(-c2ccncc2C)cc1 [Example 175, N—[(R)-1-(2-methoxy-phenyl)-ethyl]-4-(3-methyl-pyridin-4-yl)-benzamide] | 50 to 500 nM
48 | COc1cccc([C@H](C)NC(=O)c2ccc(-c3ccncc3C)cc2)c1 [Example 179, N—[(S)-1-(3-methoxy-phenyl)-ethyl]-4-(3-methyl-pyridin-4-yl)-benzamide] | 50 to 500 nM
